Source: patent US20250152750A1 (Cancer Research Technology Limited, priority 2022, published 2025)
“Also recorded” adds a separate entry of the source.

Columns and labels:
[1] = tested on: uptake of cyanine dye nanoparticles in control and senescent cells; assay: Endocytosis analysis by confocal microscopy with endocytosis pathway inhibitors; format: cell-based; settings: inhibitor 1 h before nanoparticles, 12-16 h
Method: Cells were trypsinized and seeded in flat-bottom μ-clear 96-well plates (Greiner Bio-One, #655087) at a density of 3,500-5,000 control and 4,000-6,000 senescent cells/well. Once the cells were attached, culture medium was changed to DMEM without FBS and exposed to a number of different inhibitors for 1 h. […] The cells were washed 3x with PBS for 5 min. Specific organelle stain LysoTracker Green DND-26 (Cell Signaling Technology, FM8783) was used according to the manufacturers protocol. For nuclei staining, Hoechst at 0.1 μg/mL in PBS was added 10 min prior to analysis.

[2] = tested on: senescent cells (multiple models of senescence); assay: Flow cytometry accumulation in control and senescent cells; format: cell-based, human; settings: 12-16 hours exposure
Method: LSR Fortessa (BD-Becton Dickinson) was used for flow cytometry analysis. For cyanine dye nanoparticle and small molecule studies, 6 well plates were used and seeded 200,000 cells per well. […] After this, cells were trypsinised and re-suspended in PBS buffer with 2% FBS. At least 10,000 live events were collected for each condition. DAPI (Sigma) was added to exclude dead cells. The analysis of all flow cytometry data was performed using FlowJo v10 (Treestar, OR). Unstained control and senescent cells were used as reference for each independent experiment. For ICG the 640 nm laser was used with an emission window of 750-810 nm. For the cyanine dye nanoparticle, the 640 nm laser was used with an emission window of 708-753 nm.

SK-MEL-103 xenografts = assay: Ex vivo IVIS fluorescence imaging of untreated and Palbociclib treated xenografts; format: in vivo, mice; settings: 200 μL of 1 mg/mL tail vein, 6 h, p=0.0438
Method: All mice were treated in strict accordance with the local ethical committee (University of Cambridge License Review Committee) and the UK Home Office guidelines. Tumour xenografts were established using SK-MEL-103. Cells were trypsinised, counted with a haemocytometer, and injected subcutaneously (10^6 cells in a volume of 100 μL per dorsolateral flank) in 8- to 10-week-old athymic nude female mice (Crl:NU(NCr)-Foxn1^nu) purchased from Charles River Laboratories. Tumour volume was measured every 2 days with a caliper and calculated as V=(a×b 2)/2 where a is the longer and b is the shorter of two perpendicular diameters. […]
An IVIS Spectrum Imaging System (Perkin Elmer Inc) was used for ex vivo fluorescence imaging. For ex vivo imaging, mice were sacrificed by cervical dislocation and organs and tumour xenografts were analysed immediately after harvesting. ICG was detected using an excitation wavelength of 710-740 nm and emission bandpass from 810-830 nm. […] Fluorescence imaging quantification was performed by Living Image 3.2 software (Perkin Elmer Inc). […] Fluorescence activity is measured in photons per second per square centimetre per steradian (p/s/cm^2/sr). […]
See Examples—part A. Fluorescence activity is measured as average Radiant Efficiency with the equation of [p/s/cm2/sr]/[μW/cm2].

Structure (SMILES) | effect of inhibitor on uptake of cyanine dye nanoparticles [1] | also measured
CN1CCN(CCCN2c3ccccc3Sc3ccc(Cl)cc32)CC1 [prochloroperazine] | not inhibited | 
O=C(N/N=C/c1cc(O)c(O)cc1O)c1cc2ccccc2cc1O [dynago4a] | significantly inhibited | effect of inhibitor on uptake of cyanine dye nanoparticles ([1]; listed as dyngo4a): significant inhibition
O=C1NC(=NS(=O)(=O)c2cccc3ccccc23)S/C1=C\c1ccc(Br)cc1 [Pitstop 2] | significant inhibition; also recorded: significant inhibitor of endocytosis | 
CCN(CC)CCCC(C)Nc1ccnc2cc(Cl)ccc12 (centres unmarked) [chloroquine] | significantly enhances | effect of inhibitor on uptake of cyanine dye nanoparticles ([1]; listed as Chloroquine): more dramatic increase
CC1(C)C(/C=C/C=C/C=C/C=C2\N(CCCCS(=O)(=O)O)c3ccc4ccccc4c3C2(C)C)=[N+](CCCCS(=O)(=O)[O-])c2ccc3ccccc3c21 [ICG, indocyanine green] |  | accumulation in senescent cells compared to controls [2]: accumulation of ICG; ICG emission in untreated (control) vs Palbociclib treated tumours (SK-MEL-103 xenografts): accumulation in untreated tumours as opposed to senescent tumours; also recorded: significantly higher signal in the control tumours
